Experimental data reported in patent publication US20150094354A1, “METHOD FOR TREATING CELL PROLIFERATIVE DISORDER BY INHIBITING C1GALT1 EXPRESSION” (National Taiwan University, priority 2013, published 2015).

Tested on: MET
Experiment: HGF-induced dimerization of MET (BS3 cross-linking, Western blotting)
Type: cell-based, human
Settings: 25 ng/mL HGF
Protocol: MET is also called hepatocyte growth factor receptor (HGFR). The MET gene is an important protooncogene in a variety of human cancers. To analyze dimerization of MET, hepatocellular carcinoma cells are incubated with or without 25 ng/mL of human HGF in DMEM on ice for 5 minutes. Cross-linker Bis(sulfosuccinimidyl) suberate (BS3, 0.25 mmol/L, Thermo Scientific) is added to cells and reacted at 37° C. for 5 minutes. Cells are then transferred on ice for 10 minutes. Reactions are blocked by adding 50 mmol/L of Tris-HCl (pH 7.4). Cell lysates are separated by 6% SDS-PAGE and immunoblotted with anti-MET antibody.
Because HGF-induced dimerization of MET is an initial and crucial step for the activation of MET signaling, whether C1GALT1 could affect MET dimerization was analyzed. FIGS. 19A-19B are autoradiograms illustrating the effects of C1GALT1 on dimerization of MET in hepatocellular carcinoma cells in accordance with an embodiment of the present invention. Hepatocellular carcinoma cells were starved for 5 hours and then treated with (+) or without (−) 25 ng/mL of HGF. Cell lysates were cross-linked by BS3 and then analyzed by Western blotting with anti-MET antibody. The arrows indicate the dimer (D) of MET, and the arrowheads indicate the monomer (M). Markers of molecular weight are shown on the left. GAPDH is an internal control.

“C1GALT1 si-1: siRNA oligonucleotide against C1GALT1, presumably SEQ ID NO: 1, UUAGUAUACGUUCAGGUAAGGUAGG (chemistry not given here)” was tested, and the “HGF-induced dimerization of MET” value (HA22T cells) was “suppressed” and the “HGF-induced dimerization of MET” value (PLC5 cells) was “suppressed”.
